Source: US9169247B2, “Tetrahydro-beta-carboline derivatives, synthesis and use thereof” (Southern Research Institute, priority 2009, dated 2015)
“Also recorded” adds a separate entry of the source.

Assays:
SW1116 = test: Growth assay (Cell Titer Glo); format: cell-based; details: Homo sapiens, SW 1116; SW1116 colon; 72 h
Description: (§1) Compounds 2a-h were tested for tumor cell growth inhibitory activity using the human breast MDA-MB-231 and ZR75-1 tumor cell lines and the colon CACO-2, SW-1116, and HT-29 tumor cell lines.
(§2) All human tumor cell lines were obtained from ATCC and grown under standard cell culture conditions at 37° C. in a humidified atmosphere with 5% CO2. Cells were grown in RPMI 1640 supplemented with 5% fetal bovine serum 2 mM glutamine, 100 units/ml penicillin, 100 units/ml streptomycin, and 0.25 μg/ml amphotericin. Cells were harvested at 70 to 90% confluence with trypsin/EDTA and used immediately Cell count and viability was determined by Trypan blue staining followed by hemocytometry. Only cultures displaying >95% cell viability were used for experiments. HMEC were grown according to the specifications from the supplier (Lonzo).
(§3) Tissue culture microtiter 96-well plates were seeded with cells at a density of 5,000 cells/well. The plates were incubated for 18-24 hours prior to any treatment. All test compounds were solubilized in 100% DMSO and diluted with media to obtain a final DMSO concentration of 0.1%. Cell viability was measured 72 hours after treatment by the Cell Titer Glo Assay (Promega), which is a luminescent assay that is an indicator of live cells as a function of metabolic activity and ATP content. The assay was performed according to manufacturer's specifications. Luminescence was measured by a Perkin Elmer Victor® multi-label plate reader.^6
(§4) Dose response curves were analyzed using Prism™ 4 software (GraphPad) to calculate IC50 values using a four parameter logistic equation.

CACO-2 = test: Growth assay (Cell Titer Glo); format: cell-based; details: Homo sapiens; CACO-2 colon; 72 h
Description: as §1, §2, §3, §4

ZR75-1 = test: Growth assay (Cell Titer Glo); format: cell-based; details: Homo sapiens, ZR-75-1; ZR75-1 breast; 72 h
Description: as §1, §2, §3, §4

[1] = system: normal human mammary epithelial cells (HMEC); test: Cytotoxicity to normal cells (growth assay); format: cell-based; details: up to a concentration of 10 μM
Description: as §2, §3

cGMP phosphodiesterase = cGMP phosphodiesterase activity in whole cell lysates (fluorescence polarization); format: biochemical, human; details: lysates from MDA-MB-231 cells treated for 18 hours; FIG. 2
Description: FIG. 2 illustrates cGMP phosphodiesterase inhibitory activity of compound 2f. Whole cell lysates from human MDA-MB-231 breast tumor cells treated for 18 hours with compound 2f were assayed for cGMP phosphodiesterase activity using a fluorescence polarization assay (Molecular Devices Inc).

CCFR-CEM = test: Growth assay (Cell Titer Glo); format: cell-based; details: Homo sapiens, hematopoietic
Procedure, shortened: (§5)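 Cells in RPMI 1640 with 5% FBS were seeded at 5,000 cells/well and allowed 18-24 h before compound addition at 0.1% final DMSO. Viability was read by luminescence 72 h after treatment, and IC50 values came from four-parameter logistic fits of dose-response curves.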

RPMI-8226 = test: Growth assay (Cell Titer Glo); format: cell-based; details: Homo sapiens; RPMI-8226, hematopoietic
Procedure, shortened: as §5

MOLT-4 = test: Growth assay (Cell Titer Glo); format: cell-based; details: Homo sapiens; MOLT-4, hematopoietic
Procedure, shortened: as §5

SK-MEL-28 = test: Growth assay (Cell Titer Glo); format: cell-based; details: Homo sapiens
Procedure, shortened: as §5

SNB-19 = test: Growth assay (Cell Titer Glo); format: cell-based; details: Homo sapiens; SNB-19, CNS
Procedure, shortened: as §5

NCI-ADR-RES = test: Growth assay (Cell Titer Glo); format: cell-based; details: Homo sapiens, multi-drug resistant
Procedure, shortened: as §5

SN12C = test: Growth assay (Cell Titer Glo); format: cell-based; details: Homo sapiens, renal
Procedure, shortened: as §5

HL-60(TB) = test: Growth assay (Cell Titer Glo); format: cell-based; details: Homo sapiens, hematopoietic
NCI-H460 = test: Growth assay (Cell Titer Glo); format: cell-based; details: Homo sapiens; NCI-H460, lung
Procedure, shortened: as §5

HOP-62 = test: Growth assay (Cell Titer Glo); format: cell-based; details: Homo sapiens; HOP-62, lung
Procedure, shortened: as §5

[2] = system: human MDA-MB-231 breast tumor cells; test: cGMP assay (intracellular cGMP, immunoassay); format: cell-based; details: treated for 30 minutes, FIG. 1
Description: FIG. 1A illustrates the induction of intracellular cGMP levels in cultured human MDA-MB-231 breast tumor cells treated for 30 minutes with compound 2f. […] The + indicates the effects of a positive control, sulindac sulfide tested at 100 μM. The cells were treated for 30 minutes prior to measuring intracellular cGMP levels by immunoassay. The * indicates statistical significance with p<0.05.
Cells were seeded at a density of 1×10^6 cells per 10 cm tissue culture dish, incubated for 48 hours, and treated with the specified compound or vehicle control. After 30 minutes of treatment, cells were lysed and assayed for cGMP content using the cGMP Direct Biotrak EIA kit (GE Biosciences). The assay was performed according to the manufacturer's specifications. Optical density was measured at 630 nm using a Synergy4 (BioTek) plate reader.

[3] = system: human Caki-1 renal tumor mouse xenograft; test: Caki-1 renal tumor mouse xenograft model; format: in vivo; details: 10 mg/kg one time per day for 22 days; FIG. 3B
Description: FIGS. 3A-B illustrate the anticancer activity of compound 2j. […] The cells with treated for 72 hours prior to measuring cell viability using the Cell Titer Glo assay (Promega Corp.). […] Tumor bearing mice were treated at a dose of 10 mg/kg one time per day for 22 days.

MDA-MB-468 = test: Growth assay (Cell Titer Glo); format: cell-based; details: Homo sapiens; MDA-MB-468, breast
Procedure, shortened: as §5

BT-549 = test: Growth assay (Cell Titer Glo); format: cell-based; details: Homo sapiens; BT-549, breast
Procedure, shortened: as §5

SK-MEL-5 = test: Growth assay (Cell Titer Glo); format: cell-based; details: Homo sapiens; SK-MEL-5, melanoma
Procedure, shortened: as §5

NCI-H226 = test: Growth assay (Cell Titer Glo); format: cell-based; details: Homo sapiens; NCI-H226, lung
Procedure, shortened: as §5

K562 = test: Growth assay (Cell Titer Glo); format: cell-based; details: Homo sapiens; K562, hematopoietic
Procedure, shortened: as §5

SF-295 = test: Growth assay (Cell Titer Glo); format: cell-based; details: Homo sapiens; SF-295, CNS
Procedure, shortened: as §5

MDA-MB-435 = test: Growth assay (Cell Titer Glo); format: cell-based; details: Homo sapiens; MDA-MB-435, melanoma
Procedure, shortened: as §5

OVCAR-3 = test: Growth assay (Cell Titer Glo); format: cell-based; details: Homo sapiens; OVCAR-3, ovarian
Procedure, shortened: as §5

SK-MEL-2 = test: Growth assay (Cell Titer Glo); format: cell-based; details: Homo sapiens; SK-MEL-2, melanoma
Procedure, shortened: as §5

HOP-92 = test: Growth assay (Cell Titer Glo); format: cell-based; details: Homo sapiens; HOP-92, lung
Procedure, shortened: as §5

A549 = test: Growth assay (Cell Titer Glo); format: cell-based; details: Homo sapiens; A549, lung
Procedure, shortened: as §5

Row | Compound | IC50 (CCFR-CEM) | IC50 (RPMI-8226) | IC50 (MOLT-4) | IC50 (SK-MEL-28) | IC50 (SNB-19) | IC50 (NCI-ADR-RES) | IC50 (SN12C) | IC50 (HL-60(TB)) | IC50 (NCI-H460) | IC50 (HOP-62) | other results
1 | COC(=O)[C@H]1Cc2c([nH]c3ccccc23)[C@H](c2cc(OC)ccc2OC)N1C(=O)CCl [Compound 2f, Methyl (1S,3R)-1-(2,5-dimethoxyphenyl)-2-(2-chloroacetyl)-2,3,4,9-tetrahydro-1H-β-carboline-3-carboxylate] | < 0.006 µM | 0.017 µM | 0.161 µM | 0.485 µM | 0.131 µM | 0.023 µM | 0.375 µM | 0.017 µM | > 10 µM | 0.02 µM | IC50 (SW1116): 4.4 µM; IC50 (CACO-2): 0.01 µM; IC50 (ZR75-1): 1.2 µM; cytotoxicity to normal human mammary epithelial cells (HMEC) [1]: insensitive; also recorded: no cytotoxicity; cGMP PDE activity in lysates (cGMP phosphodiesterase): selectively inhibited; intracellular cGMP levels [2]: induction; also recorded: increase
2 | COC(=O)[C@H]1Cc2c([nH]c3ccccc23)[C@H](c2ccc(Cl)cc2Cl)N1C(=O)CCl [Compound 2j, (1S,3R) Methyl 1-(2,4-dichlorophenyl)-2-(2-chloroacetyl)-2,3,4,9-tetrahydro-1H-β-carboline-3-carboxylate] | 0.01 µM | 0.08 µM | 0.13 µM | 1.04 µM | 1.04 µM | 0.02 µM | > 3 µM | 0.04 µM | < 0.001 µM | 0.2 µM | in vivo tumor growth [3]: strongly suppressed tumor growth; also recorded: strong in vivo antitumor activity; IC50 (MDA-MB-468): 0.13 µM; IC50 (BT-549): 0.76 µM; IC50 (SK-MEL-5): > 3 µM; IC50 (NCI-H226): 1.41 µM; IC50 (K562): 1.25 µM; IC50 (SF-295): 0.07 µM; IC50 (MDA-MB-435): 0.64 µM; IC50 (OVCAR-3): 0.13 µM; IC50 (SK-MEL-2): 0.92 µM; IC50 (HOP-92): 0.02 µM; IC50 (A549): > 3 µM
